In PubChem BioAssay AID1918955 (Molecular Pharmacology Branch, DTP, NCI, 2023):
pIC50: −log10 of the molar value.

System: NCI/ADR-RES complex spheroid viability
Assay: Anticancer human tumor NCI/ADR-RES cell line growth inhibition;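 for viability, T/C: 100% = DMSO vehicle treated spheroids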
Settings: for pIC50: curve of first compound; for viability, T/C: stronger effect = lower value
Summary of the method: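 Complex spheroids of tumor cells with HUVEC and human MSCs, exposed to iadademstat combined with other agents. Each agent tested in half-log steps from near clinical Cmax (else 10 microM top), DMSO ≤0.25%.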

[1] = second compound 0.1 µM, first compound 0.00316 µM
[2] = second compound 0.1 µM, first compound 0.01 µM
[3] = second compound 0.1 µM, first compound 0.0316 µM
[4] = second compound 0.1 µM, first compound 0.1 µM
[5] = second compound 0.1 µM, first compound 0.316 µM
[6] = second compound 0.1 µM, first compound 1 µM
[7] = second compound 0.316 µM, first compound 0.00316 µM
[8] = second compound 0.316 µM, first compound 0.01 µM
[9] = second compound 0.316 µM, first compound 0.0316 µM
[10] = second compound 0.316 µM, first compound 0.1 µM
[11] = second compound 0.316 µM, first compound 0.316 µM
[12] = second compound 0.316 µM, first compound 1 µM
[13] = second compound 1 µM, first compound 0.00316 µM
[14] = second compound 1 µM, first compound 0.01 µM
[15] = second compound 1 µM, first compound 0.0316 µM
[16] = second compound 1 µM, first compound 0.1 µM
[17] = second compound 1 µM, first compound 0.316 µM
[18] = second compound 1 µM, first compound 1 µM
[19] = second compound 3.16 µM, first compound 0.00316 µM
[20] = second compound 3.16 µM, first compound 0.01 µM
[21] = second compound 3.16 µM, first compound 0.0316 µM
[22] = second compound 3.16 µM, first compound 0.1 µM
[23] = second compound 3.16 µM, first compound 0.316 µM
[24] = second compound 3.16 µM, first compound 1 µM
[25] = second compound 10 µM, first compound 0.00316 µM
[26] = second compound 10 µM, first compound 0.01 µM
[27] = second compound 10 µM, first compound 0.0316 µM
[28] = second compound 10 µM, first compound 0.1 µM
[29] = second compound 10 µM, first compound 0.316 µM
[30] = second compound 10 µM, first compound 1 µM

Structure (SMILES): CC1COCCN1c1cc(-c2ccnn2C)c2ccnc(-c3ccn[nH]3)c2n1 (stereo not given) + NC1CC1c1ccc(-c2cccc(O)c2)cc1
- pIC50 (second compound 0.1 µM): 7.93
- pIC50 (second compound 0.316 µM): 7.87
- pIC50 (second compound 1 µM): 7.91
- pIC50 (second compound 3.16 µM): 7.90
- pIC50 (second compound 10 µM): 7.89
- viability, T/C [1]: 94.5%
- viability, T/C [2]: 56.5%
- viability, T/C [3]: 11.9%
- viability, T/C [4]: 2.87%
- viability, T/C [5]: 1.82%
- viability, T/C [6]: 1.99%
- viability, T/C [7]: 93.9%
- viability, T/C [8]: 63.8%
- viability, T/C [9]: 11.9%
- viability, T/C [10]: 2.5%
- viability, T/C [11]: 2.17%
- viability, T/C [12]: 2.31%
- viability, T/C [13]: 95.2%
- viability, T/C [14]: 57.5%
- viability, T/C [15]: 16.2%
- viability, T/C [16]: 2.46%
- viability, T/C [17]: 1.61%
- viability, T/C [18]: 1.71%
- viability, T/C [19]: 92.3%
- viability, T/C [20]: 58.4%
- viability, T/C [21]: 16.9%
- viability, T/C [22]: 2.63%
- viability, T/C [23]: 1.85%
- viability, T/C [24]: 2.16%
- viability, T/C [25]: 75.9%
- viability, T/C [26]: 58.6%
- viability, T/C [27]: 20.3%
- viability, T/C [28]: 4.64%
- viability, T/C [29]: 2.38%
- viability, T/C [30]: 2.48%

Structure (SMILES): CC1(C)CCC(CN2CCN(c3ccc(C(=O)NS(=O)(=O)c4ccc(NCC5CCOCC5)c([N+](=O)[O-])c4)c(Oc4cnc5[nH]ccc5c4)c3)CC2)=C(c2ccc(Cl)cc2)C1 + NC1CC1c1ccc(-c2cccc(O)c2)cc1
- pIC50 (second compound 0.1 µM): < 5.00
- pIC50 (second compound 0.316 µM): < 5.00
- pIC50 (second compound 1 µM): < 5.00
- pIC50 (second compound 3.16 µM): < 5.00
- pIC50 (second compound 10 µM): < 5.00
- viability, T/C [3]: 107%
- viability, T/C [4]: 109%
- viability, T/C [5]: 109%
- viability, T/C [6]: 104%
- viability, T/C (second compound 0.1 µM, first compound 3.16 µM): 101%
- viability, T/C (second compound 0.1 µM, first compound 10 µM): 95.6%
- viability, T/C [9]: 110%
- viability, T/C [10]: 111%
- viability, T/C [11]: 113%
- viability, T/C [12]: 101%
- viability, T/C (second compound 0.316 µM, first compound 3.16 µM): 103%
- viability, T/C (second compound 0.316 µM, first compound 10 µM): 89.7%
- viability, T/C [15]: 103%
- viability, T/C [16]: 106%
- viability, T/C [17]: 103%
- viability, T/C [18]: 99.8%
- viability, T/C (second compound 1 µM, first compound 3.16 µM): 101%
- viability, T/C (second compound 1 µM, first compound 10 µM): 99.4%
- viability, T/C [21]: 97.1%
- viability, T/C [22]: 97.8%
- viability, T/C [23]: 102%
- viability, T/C [24]: 108%
- viability, T/C (second compound 3.16 µM, first compound 3.16 µM): 98.6%
- viability, T/C (second compound 3.16 µM, first compound 10 µM): 89.8%
- viability, T/C [27]: 88.6%
- viability, T/C [28]: 98.4%
- viability, T/C [29]: 92.3%
- viability, T/C [30]: 94.5%
- viability, T/C (second compound 10 µM, first compound 3.16 µM): 81.6%
- viability, T/C (second compound 10 µM, first compound 10 µM): 75.7%

Structure (SMILES): CC1COCCN1c1cc(-c2ccnn2C)c2ccnc(-c3ccn[nH]3)c2n1 (stereo not given) + NC1CCC(NC2CC2c2ccccc2)CC1
- pIC50 (second compound 0.1 µM): 7.81
- pIC50 (second compound 0.316 µM): 7.79
- pIC50 (second compound 1 µM): 7.78
- pIC50 (second compound 3.16 µM): 7.86
- pIC50 (second compound 10 µM): 8.13
- viability, T/C [1]: 99.8%
- viability, T/C [2]: 70.3%
- viability, T/C [3]: 17.4%
- viability, T/C [4]: 4.62%
- viability, T/C [5]: 5.9%
- viability, T/C [6]: 8.55%
- viability, T/C [7]: 101%
- viability, T/C [8]: 74.4%
- viability, T/C [9]: 16.8%
- viability, T/C [10]: 2.98%
- viability, T/C [11]: 2.91%
- viability, T/C [12]: 2.82%
- viability, T/C [13]: 102%
- viability, T/C [14]: 74.6%
- viability, T/C [15]: 18.8%
- viability, T/C [16]: 3.17%
- viability, T/C [17]: 7.14%
- viability, T/C [18]: 10.6%
- viability, T/C [19]: 92.1%
- viability, T/C [20]: 65.6%
- viability, T/C [21]: 10.3%
- viability, T/C [22]: 2.4%
- viability, T/C [23]: 6%
- viability, T/C [24]: 2.76%
- viability, T/C [25]: 83.9%
- viability, T/C [26]: 38.2%
- viability, T/C [27]: 11.9%
- viability, T/C [28]: 2.97%
- viability, T/C [29]: 1.89%
- viability, T/C [30]: 2.07%
